Reference: patent US20080260896A1 (priority 2007, published 2008)
Marks after values point to notes of the source that are not given here.

Legend:
[1] = Crude glycerin in finishing cattle diets: animal performance (weight, ADG, DMI, gain/feed); format: in vivo, Angus-cross steers; conditions: for Average Daily Gain / Dry Matter Intake / Gain/Feed, ×100 / Weight: 10% DM glycerin
Description: All cattle were adapted on a common 4-step transition prior to initiation of the evaluation. Cattle were blocked by weight (4 blocks) with four pens per treatment (9-10 head/pen). […] Individual weights were collected at 28-day intervals throughout with steers terminated on three harvest dates (days on feed 116 to 153 days) based on weight and condition. Six monthly periods and cumulative (d 1-116 and 1-153) periods were analyzed.

[2] = Crude glycerin as an energy source in swine nursery diets; format: in vivo; conditions: nursery pigs
Description: In yet another embodiment, crude glycerin was evaluated as an energy source in swine nursery diets. A total of 165 pigs (Monsanto Choice Genetics, EB x GP37; initial weight: 7.14 kg) were used to determine the effect of […] on performance of nursery pigs. Pigs were blocked by initial weight to one of five dietary treatments with seven pens per treatment and four or five pigs per pen. […] The basal diets were close to a typical corn-SBM diet with no animal fat added. […] Dietary protein, lysine (amino acid ratios), major minerals, and vitamins were equal across treatments within each phase. […] Dietary lysine levels were high enough to […] to observe energy effect. Feeding programs of Momentum grind-mix option (15-25, 25-35 and 35-50 lbs. BW) was the base program. The trial had four phases with 7, 7, 7, and 9 days, respectively. Before the pigs started the trial, the pigs were fed a common diet until the pigs weighed about 15.5 pounds. Medication choice for diets in this embodiment was Carbadox. The assumed ME value for crude glycerin was based on preliminary research data from Europe. […] Feed efficiency data was regressed against daily ME intake to estimate ME content for crude glycerin. […] The crude glycerin's energy value should be similar to or lower than corn.

[3] = Methanol concentration of stored crude glycerin; format: physicochemical; conditions: stored in sealed totes approximately 5 months, analyzed in duplicate; certificate of analysis 800 ppm
Description: A subset of ten cattle (5 from each treatment) were used for baseline and withdrawal sampling of rumen fluid and blood plasma for residual methanol quantification. […] Withdrawal samples were collected from the same subset of animals.

[4] = Day 1-28, DDGS:Soy Hulls 10:0 diet (Treatment 2)
[5] = Day 1-28, DDGS:Soy Hulls 30:15 diet (Treatment 4)
[6] = Day 1-28, main effect over both diets
[7] = Day 1-116, DDGS:Soy Hulls 10:0 diet (Treatment 2)
[8] = Day 1-116, DDGS:Soy Hulls 30:15 diet (Treatment 4)
[9] = Day 1-116, main effect over both diets
[10] = Day 1-153, DDGS:Soy Hulls 10:0 diet (Treatment 2)
[11] = Day 1-153, DDGS:Soy Hulls 30:15 diet (Treatment 4)
[12] = Day 1-153, main effect over both diets
[13] = Day 29-56, DDGS:Soy Hulls 10:0 diet (Treatment 2)
[14] = Day 29-56, DDGS:Soy Hulls 30:15 diet (Treatment 4)
[15] = Day 29-56, main effect over both diets
[16] = Day 57-84, DDGS:Soy Hulls 10:0 diet (Treatment 2)
[17] = Day 57-84, DDGS:Soy Hulls 30:15 diet (Treatment 4)
[18] = Day 57-84, main effect over both diets
[19] = Day 85-116, DDGS:Soy Hulls 10:0 diet (Treatment 2)
[20] = Day 85-116, DDGS:Soy Hulls 30:15 diet (Treatment 4)
[21] = Day 85-116, main effect over both diets
[22] = Day 117-132, DDGS:Soy Hulls 10:0 diet (Treatment 2)
[23] = Day 117-132, DDGS:Soy Hulls 30:15 diet (Treatment 4)
[24] = Day 117-132, main effect over both diets
[25] = Day 133-153, DDGS:Soy Hulls 10:0 diet (Treatment 2)
[26] = Day 133-153, DDGS:Soy Hulls 30:15 diet (Treatment 4)
[27] = Day 133-153, main effect over both diets
[28] = high co-product diets with glycerin

## OCC(O)CO [crude glycerin, glycerin]
[1]; [4]
  Average Daily Gain: 1.46^a kg/hd/d
  Dry Matter Intake: 7.97^c kg/hd/d
  Gain/Feed, ×100: 18.27^a
[1]; [5]
  Average Daily Gain: 1.31^ab kg/hd/d
  Dry Matter Intake: 8.34^bc kg/hd/d
  Gain/Feed, ×100: 15.64^b
[1]; [6]
  Average Daily Gain: 1.38 kg/hd/d
  Dry Matter Intake: 8.16 kg/hd/d
  Gain/Feed, ×100: 16.96
[1]; [7]
  Average Daily Gain: 1.30 kg/hd/d
  Dry Matter Intake: 8.31^c kg/hd/d
  Gain/Feed, ×100: 15.66^a
[1]; [8]
  Average Daily Gain: 1.27 kg/hd/d
  Dry Matter Intake: 8.95^b kg/hd/d
  Gain/Feed, ×100: 14.28^b
[1]; [9]
  Average Daily Gain: 1.29 kg/hd/d
  Dry Matter Intake: 8.63 kg/hd/d
  Gain/Feed, ×100: 14.97
[1]; [10]
  Average Daily Gain: 1.27^a kg/hd/d
  Dry Matter Intake: 8.37^c kg/hd/d
  Gain/Feed, ×100: 15.21^a
[1]; [11]
  Average Daily Gain: 1.21^ab kg/hd/d
  Dry Matter Intake: 8.99^b kg/hd/d
  Gain/Feed, ×100: 13.43^b
[1]; [12]
  Average Daily Gain: 1.24 kg/hd/d
  Dry Matter Intake: 8.68 kg/hd/d
  Gain/Feed, ×100: 14.32
[1]; Day 28, DDGS:Soy Hulls 10:0 diet (Treatment 2)
  Weight: 428.2^a kg
[1]; Day 28, DDGS:Soy Hulls 30:15 diet (Treatment 4)
  Weight: 423.9^ab kg
[1]; Day 28, main effect over both diets
  Weight: 426.1 kg
[1]; [13]
  Average Daily Gain: 1.53 kg/hd/d
  Dry Matter Intake: 8.78^c kg/hd/d
  Gain/Feed, ×100: 17.43^a
[1]; [14]
  Average Daily Gain: 1.66 kg/hd/d
  Dry Matter Intake: 9.95^b kg/hd/d
  Gain/Feed, ×100: 16.78^a
[1]; [15]
  Average Daily Gain: 1.60 kg/hd/d
  Dry Matter Intake: 9.36 kg/hd/d
  Gain/Feed, ×100: 17.10
[1]; Day 56, DDGS:Soy Hulls 10:0 diet (Treatment 2)
  Weight: 471.2 kg
[1]; Day 56, DDGS:Soy Hulls 30:15 diet (Treatment 4)
  Weight: 470.5 kg
[1]; Day 56, main effect over both diets
  Weight: 470.9 kg
[1]; [16]
  Average Daily Gain: 1.29 kg/hd/d
  Dry Matter Intake: 8.84^b kg/hd/d
  Gain/Feed, ×100: 14.64
[1]; [17]
  Average Daily Gain: 1.25 kg/hd/d
  Dry Matter Intake: 9.37^b kg/hd/d
  Gain/Feed, ×100: 13.36
[1]; [18]
  Average Daily Gain: 1.27 kg/hd/d
  Dry Matter Intake: 9.11 kg/hd/d
  Gain/Feed, ×100: 14.00
[1]; Day 84, DDGS:Soy Hulls 10:0 diet (Treatment 2)
  Weight: 507.3 kg
[1]; Day 84, DDGS:Soy Hulls 30:15 diet (Treatment 4)
  Weight: 505.4 kg
[1]; Day 84, main effect over both diets
  Weight: 506.4 kg
[1]; [19]
  Average Daily Gain: 0.97 kg/hd/d
  Dry Matter Intake: 7.74^c kg/hd/d
  Gain/Feed, ×100: 12.47
[1]; [20]
  Average Daily Gain: 0.93 kg/hd/d
  Dry Matter Intake: 8.25^bc kg/hd/d
  Gain/Feed, ×100: 11.22
[1]; [21]
  Average Daily Gain: 0.95 kg/hd/d
  Dry Matter Intake: 8.00 kg/hd/d
  Gain/Feed, ×100: 11.84
[1]; Day 116, DDGS:Soy Hulls 10:0 diet (Treatment 2)
  Weight: 538.3 kg
[1]; Day 116, DDGS:Soy Hulls 30:15 diet (Treatment 4)
  Weight: 535.1 kg
[1]; Day 116, main effect over both diets
  Weight: 536.7 kg
[1]; [22]
  Average Daily Gain: 1.46 kg/hd/d
  Dry Matter Intake: 8.67^ab kg/hd/d
  Gain/Feed, ×100: 17.25
[1]; [23]
  Average Daily Gain: 1.26 kg/hd/d
  Dry Matter Intake: 9.54^ab kg/hd/d
  Gain/Feed, ×100: 12.86
[1]; [24]
  Average Daily Gain: 1.36 kg/hd/d
  Dry Matter Intake: 9.11 kg/hd/d
  Gain/Feed, ×100: 15.06
[1]; Day 132, DDGS:Soy Hulls 10:0 diet (Treatment 2)
  Weight: 552.8 kg
[1]; Day 132, DDGS:Soy Hulls 30:15 diet (Treatment 4)
  Weight: 548.8 kg
[1]; Day 132, main effect over both diets
  Weight: 550.8 kg
[1]; [25]
  Average Daily Gain: 1.39^a kg/hd/d
  Dry Matter Intake: 8.48 kg/hd/d
  Gain/Feed, ×100: 16.48^a
[1]; [26]
  Average Daily Gain: 0.90^b kg/hd/d
  Dry Matter Intake: 9.42 kg/hd/d
  Gain/Feed, ×100: 9.35^b
[1]; [27]
  Average Daily Gain: 1.15 kg/hd/d
  Dry Matter Intake: 8.95 kg/hd/d
  Gain/Feed, ×100: 12.92
[1]; Day 153, DDGS:Soy Hulls 10:0 diet (Treatment 2)
  Weight: 570.5 kg
[1]; Day 153, DDGS:Soy Hulls 30:15 diet (Treatment 4)
  Weight: 548.0 kg
[1]; Day 153, main effect over both diets
  Weight: 559.3 kg
[1]; [28]
  Cumulative ADG better: 2.5%
  cumulative DMI lower: 11.8%
  cumulative gain: feed better: 16.4%
[1]; high-grain diets with glycerin
  Cumulative ADG greater: 11.4%
  cumulative DMI lesser: 8.1%
  cumulative gain: feed greater: 21.9%
[1]; steers fed diets containing 10% crude glycerin (main effect)
  Cumulative ADG: 1.24 kg/day
[1]; steers fed diets with added glycerin (main effect), cumulative
  dry matter intake (DMI): 8.68 kg/day
[2]; phase 4, increasing dietary crude glycerin
  daily gain: decreased in phase 4 in a linear and quadratic manner
[2]; phases 2, 3, 4 and cumulative phases 1-2, 1-3, 1-4, increasing dietary crude glycerin
  Feed intake: linearly increased
[2]; up to 12% crude glycerin
  daily gain: did not affect daily gain
[3]
  methanol concentration of crude glycerin samples: 756 ppm
